Assays:
PI5P4Kγ+ [1] = target: T1, PI5P4Kγ+ (Homo sapiens, UniProt Q8TBX8, D138G/D197E/E133P/E135D/E153T/E196G/G139A/N195G/S132L/S134N); test: biochemical
T1 sequence (Q8TBX8 with tags, fused parts or gaps INS131LPN/S132D/E133S/S134Q/E135A/G136R/D138G/G139A/E153T/N195G/E196G/D197E): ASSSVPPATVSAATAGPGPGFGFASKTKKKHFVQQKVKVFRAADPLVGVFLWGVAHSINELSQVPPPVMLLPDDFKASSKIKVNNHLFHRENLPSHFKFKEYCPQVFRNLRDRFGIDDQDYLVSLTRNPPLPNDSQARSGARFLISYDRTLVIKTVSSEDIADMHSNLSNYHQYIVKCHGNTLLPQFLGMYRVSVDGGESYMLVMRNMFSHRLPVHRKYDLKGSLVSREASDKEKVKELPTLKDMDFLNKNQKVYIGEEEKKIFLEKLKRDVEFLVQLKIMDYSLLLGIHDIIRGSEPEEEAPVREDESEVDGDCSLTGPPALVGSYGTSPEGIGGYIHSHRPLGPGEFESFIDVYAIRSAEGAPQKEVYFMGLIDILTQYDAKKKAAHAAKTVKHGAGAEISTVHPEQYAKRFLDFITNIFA

PI5P4Kα [2] = target: T2, PI5P4Kα (Homo sapiens, UniProt P48426); test: biochemical
T2 sequence (P48426 1-406): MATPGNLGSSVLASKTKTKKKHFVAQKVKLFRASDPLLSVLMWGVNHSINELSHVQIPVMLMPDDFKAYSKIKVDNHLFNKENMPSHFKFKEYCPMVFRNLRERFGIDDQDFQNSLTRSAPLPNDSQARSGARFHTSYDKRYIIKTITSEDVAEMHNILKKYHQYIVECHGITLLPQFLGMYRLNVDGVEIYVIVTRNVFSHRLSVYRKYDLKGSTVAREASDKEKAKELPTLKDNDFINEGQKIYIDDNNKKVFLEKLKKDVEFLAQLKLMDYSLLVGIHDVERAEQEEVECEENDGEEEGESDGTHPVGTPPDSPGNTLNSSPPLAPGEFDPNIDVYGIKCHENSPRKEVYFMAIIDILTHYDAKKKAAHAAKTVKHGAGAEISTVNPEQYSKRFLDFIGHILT

PI5P4Kγ+ [3] = settings: ratio PI5P4Kα IC50 / PI5P4Kγ+ IC50, ADP-Glo
PI5P4Kα [4] = target: T2, PI5P4Kα; settings: for PI5P4Kα pIC50: footnote a: inconsistent replicates, value shown is upper limit
[5] = ADP-Glo pIC50 PI5P4Kγ+, Table S1, two decimals, asterisk not explained
[6] = ADP-Glo pIC50 PI5P4Kα, Table S1, two decimals, asterisk not explained
[7] = PI5P4Kγ+ pIC50, ADP-Glo, footnote a: inconsistent replicates, value shown is upper limit

Compound	IC50 (PI5P4Kγ+ [1]; [5]) [µM]	IC50 (PI5P4Kα [2]; [6]) [µM]	other results
CSc1ccc(Nc2ncnc3cc(-c4c(C)noc4C)sc23)cc1 [CSc1ccc(cc1)Nc1ncnc2cc(sc12)-c1c(noc1C)C]	0.0324	0.0224	–
COc1cnccc1-c1cc2c(Nc3ccc(C4CC4)cc3)ncnc2[nH]1	0.0851	0.24	–
CSc1ccc(Nc2ncnc3cc(-c4cccnc4C)sc23)cc1 [CSc1ccc(cc1)Nc1ncnc2cc(sc12)-c1cccnc1C]	0.017	0.0776	–
N#Cc1cc2c(Nc3ccc(S(=O)(=O)C4CCCC4)cc3)ncnc2s1	0.049	4.68	–
Cc1cc2c(Nc3ccc(Br)cc3)ncnc2s1 [Cc1cc2c(ncnc2s1)Nc1ccc(cc1)Br]	–	6.92	–
CC(=O)NCc1cc2c(Nc3ccc(S(=O)(=O)C4CCCC4)cc3)ncnc2s1	0.0126	4.37	–
CC(=O)N(C)c1ccc(Nc2ncnc3sc(C)cc23)cc1 [CN(C(=O)C)c1ccc(cc1)Nc1ncnc2sc(cc12)C]	–	1.12	–
COc1cnccc1-c1cc2c(Nc3ccc(Cl)cc3)ncnc2s1 [COc1cnccc1-c1cc2c(ncnc2s1)Nc1ccc(cc1)Cl]	0.0631	1.32	–
CS(=O)(=O)c1ccc(Nc2ncnc3sc(-c4ccc(F)cc4F)cc23)cc1	0.0851	1.1	–
Cc1c(C(=O)O)sc2ncnc(Nc3ccc(C(C)C)cc3)c12 [CC(C)c1ccc(cc1)Nc1ncnc2sc(c(c12)C)C(=O)O]	–	2.75	–
CS(=O)(=O)c1ccc(Nc2ncnc3sc(-c4cnoc4)cc23)cc1	0.0363	2.19	–
Cc1ccc(Nc2ncnc3sc(-c4cccnc4Cl)cc23)c(C)c1	8.32	2.95	–
Cc1ccc(Nc2ncnc3sc(-c4cccnc4Cl)cc23)cc1 [Cc1ccc(cc1)Nc1ncnc2sc(cc12)-c1cccnc1Cl]	0.427	0.263	–
CS(=O)(=O)c1ccc(Nc2ncnc3sc(C(F)F)cc23)cc1	0.166	8.71	–
CN(C)C(=O)c1cc2c(Nc3ccc(S(C)(=O)=O)cc3)ncnc2s1	0.562	6.92	–
CS(=O)(=O)c1ccc(Nc2ncnc3sc(-c4ccc(F)cc4)cc23)cc1	0.0525	9.77	–
CCc1ccc(Nc2ncnc3sc(-c4cccnc4Cl)cc23)cc1 [CCc1ccc(cc1)Nc1ncnc2sc(cc12)-c1cccnc1Cl]	0.151	0.324	–
COc1cnccc1-c1cc2c(Nc3ccc(C4CC4)cc3)ncnc2s1	0.0631	0.269	–
CS(=O)(=O)c1ccc(Nc2ncnc3scc(C4CC4)c23)cc1 [Compound 33]	–	–	IC50 (PI5P4Kγ+ [1]; [7]): 0.1 µM; PI5P4Kα pIC50 (PI5P4Kα [4]; ADP-Glo): <4.8
COc1ncccc1-c1cc2c(Nc3ccc(S(C)(=O)=O)cc3)ncnc2s1	0.0288	2.29	–
Cc1cc2c(Nc3ccc(N4CC(C)(C)CC4=O)cc3)ncnc2s1	0.132	1.17	–
COc1ccc(-n2ncc3c(Nc4ccc(OC)c(Cl)c4)ncnc32)cc1 [Compound 4, reference compound]	–	–	IC50 (PI5P4Kγ+ [1]; [7]): 12.6 µM; Fold-selectivity (α IC50/γ IC50) (PI5P4Kγ+ [3]): 0.032
CS(=O)(=O)c1ccc(Nc2ncnc3ccsc23)cc1 [Compound 36]	–	–	IC50 (PI5P4Kγ+ [1]; [7]): 0.0501 µM; PI5P4Kα inhibition (in words) (PI5P4Kα [4]; ADP-Glo): undetectable; PI5P4Kα pIC50 (PI5P4Kα [4]; ADP-Glo): <4.3
COc1cnccc1-c1cc2c(Nc3ccc(SC)cc3)ncnc2s1 [COc1cnccc1-c1cc2c(ncnc2s1)Nc1ccc(cc1)SC]	0.0151	0.129	–
CSc1ccc(Nc2ncnc3sc(-c4cncnc4)cc23)cc1 [CSc1ccc(cc1)Nc1ncnc2sc(cc12)-c1cncnc1]	0.0295	0.234	–
CSc1ccc(Nc2ncnc3sc(C)cc23)cc1 [CSc1ccc(cc1)Nc1ncnc2sc(cc12)C]	0.178	2.34	–
COc1cnccc1-c1cc2ncnc(Nc3ccc(SC)cc3)c2s1 [COc1cnccc1-c1cc2ncnc(c2s1)Nc1ccc(cc1)SC]	0.0537	0.49	–

Second part, led by results:

IC50 (PI5P4Kγ+ [1]; [5]) [µM]	IC50 (PI5P4Kα [2]; [6]) [µM]	Compound	other results
0.0427	–	CSc1ccc(Nc2ncnc3sc(-c4cnoc4)cc23)cc1 [Compound 29]	IC50 (PI5P4Kγ+ [1]; [7]): 0.0398 µM; Fold-selectivity (α IC50/γ IC50) (PI5P4Kγ+ [3]): 6.0; PI5P4Kα pIC50 (PI5P4Kα [4]; ADP-Glo): 6.6; ADP-Glo pIC50 PI5P4Kα (PI5P4Kα [4]; Table S1, two decimals, asterisk not explained): 6.59
8.51	0.49	Cc1ccc(Nc2ncnc3sc(-c4cccnc4Cl)cc23)cc1C [Cc1ccc(cc1C)Nc1ncnc2sc(cc12)-c1cccnc1Cl]	–
0.214	7.24	COc1cc(Nc2ncnc3sc(C)cc23)ccc1N1CCCC1=O [COc1cc(ccc1N1CCCC1=O)Nc1ncnc2sc(cc12)C]	–
7.41	5.01	COc1cnccc1-c1cc2c(Nc3ccc(C)cc3C)ncnc2s1 [COc1cnccc1-c1cc2c(ncnc2s1)Nc1ccc(cc1C)C]	–
2.34	1.45	Cc1cccc(Nc2ncnc3sc(-c4cccnc4Cl)cc23)c1 [Cc1cccc(c1)Nc1ncnc2sc(cc12)-c1cccnc1Cl]	–
0.389	2.95	Cc1cc(Nc2ncnc3sc(-c4cccnc4Cl)cc23)ccc1Cl [Cc1cc(ccc1Cl)Nc1ncnc2sc(cc12)-c1cccnc1Cl]	–
0.0676	0.195	Clc1ncccc1-c1cc2c(Nc3ccc(C4CC4)cc3)ncnc2s1	–
0.2	5.37	Cc1cc2c(Nc3ccc(N4CCCC4=O)c(C)c3)ncnc2s1 [Cc1cc2c(ncnc2s1)Nc1ccc(c(c1)C)N1CCCC1=O]	–
7.94	5.25	Cc1cc(Cl)ccc1Nc1ncnc2sc(-c3cccnc3Cl)cc12 [Cc1cc(ccc1Nc1ncnc2sc(cc12)-c1cccnc1Cl)Cl]	–
–	1.48	CS(=O)(=O)c1ccc(Nc2ncnc3sc(-c4cccnc4F)cc23)cc1 [Compound 16]	IC50 (PI5P4Kγ+ [1]; [7]): 0.0316 µM; Fold-selectivity (α IC50/γ IC50) (PI5P4Kγ+ [3]): 50; IC50 (PI5P4Kα [2]; PI5P4Kα pIC50, ADP-Glo, footnote a: inconsistent replicates, value shown is upper limit): ≥ 1.58 µM
0.288	9.77	CCc1cc2c(Nc3ccc(N4CCCC4=O)c(C)c3)ncnc2s1 [CCc1cc2c(ncnc2s1)Nc1ccc(c(c1)C)N1CCCC1=O]	–
0.0398	5.25	O=C(NCc1cc2c(Nc3ccc(S(=O)(=O)C4CCCC4)cc3)ncnc2s1)c1ccc(C2(C(F)(F)F)N=N2)cc1	–
0.631	0.275	COc1cnccc1-c1cc2c(Nc3ccc(C)c(C)c3)ncnc2s1	–
0.0759	7.76	Cc1cc2c(Nc3ccc(S(=O)(=O)C4CC4)cc3)ncnc2s1	–

Reference: PMC10583824, “The rational design of ARUK2007145, a dual inhibitor of the α and γ isoforms of the lipid kinase phosphatidylinositol 5-phosphate 4-kinase (PI5P4K)” (RSC Medicinal Chemistry, 2023)
